In brackets after ≈: the same amount, converted by molar mass.
B1: Caseinolytic peptidase P (ClpP) of S. aureus, label-free (His tag excised) (enzyme)
chain: MNLIPTVIETTNRGERAYDIYSRLLKDRIIMLGSQIDDNVANSIVSQLLFLQAQDSEKDIYLYINSPGGSVTAGFAIYDTIQHIKPDVQTICIGMAASMGSFLLAAGAKGKRFALPNAEVMIHQPLGGAQGQATEIEIAANHILKTREKLNRILSERTGQSIEKIQKDTDRDNFLTAEEAKEYGLIDEVMVPETK
notes: also called casein hydrolase P; label-free ClpP protein; source: E. coli BL21 (DE3), pET28a-clpP, purified (His-Trap); copies: 14

Experiments:
ClpP [1] = target: T1, ClpP (Staphylococcus aureus, UniProt Q2G036); experiment: ClpP peptidase assay with fluorescent substrate Suc-LY-AMC (positive-control inhibitor); type: biochemical
T1 construct: pET28a-clpP, purified from E. coli BL21(DE3)

ClpP [2] = target: T1, ClpP; experiment: biochemical; details: read-out: Relative inhibition rate (%)
Protocol: This property was exploited to screen the available laboratory library of small molecules for ClpP inhibitors. First, 10 μM ClpP and 64 μg/mL of the small molecule compound were added to a black opaque 96-well plate containing 100 μL of ClpP buffer (100 mM HEPES,100 mM NaCl) and incubated for 1 h at room temperature. Afterward, 100 μM Suc-LeuTyr-AMC (Cat number S1153, Sigma-Aldrich, St. Louis, MO, USA) was added to 96-well plates and incubated for 30 min at 32°C. Finally, the fluorescence values were detected by Infinite M200 (360 nm excitation/465 nm emission). […] Since the fluorescent substrate Suc-LY-AMC can be used to detect the activity of ClpP protein, we screened a library of natural products available in our laboratory.

S. aureus USA300 (MRSA) = test system: T2, S. aureus USA300 (MRSA); experiment: microbe, parasite or virus in culture; parameters: MIC, growth inhibition of MRSA USA300; details: Staphylococcus aureus, read-out: MIC (μg/mL)
T2 construct: USA300

ClpP [3] = target: T1, ClpP; experiment: LSPR (OpenSPR) with immobilized ClpP; supported by TSA, CETSA in lysate, and Suc-LY-AMC inhibition (IC50 […]); type: binding
[4] = target: T3, 6×His-ClpX protein of S. aureus (S. aureus, UniProt Q2FXQ7 1-420); experiment: pull-down; 6×His-ClpX and label-free ClpP mixed with 2 mM ATPγS (with DMSO, quercetin or ADEP4), overnight at 4°C; passed through Ni-NTA, washed with binding buffer (40 mM Tris, 200 mM NaCl, pH 8.5), eluted with 400 mM imidazole; SDS-PAGE; details: both partners purified
T3 construct: source: E. coli, purified
T3 sequence (Q2FXQ7 whole entry): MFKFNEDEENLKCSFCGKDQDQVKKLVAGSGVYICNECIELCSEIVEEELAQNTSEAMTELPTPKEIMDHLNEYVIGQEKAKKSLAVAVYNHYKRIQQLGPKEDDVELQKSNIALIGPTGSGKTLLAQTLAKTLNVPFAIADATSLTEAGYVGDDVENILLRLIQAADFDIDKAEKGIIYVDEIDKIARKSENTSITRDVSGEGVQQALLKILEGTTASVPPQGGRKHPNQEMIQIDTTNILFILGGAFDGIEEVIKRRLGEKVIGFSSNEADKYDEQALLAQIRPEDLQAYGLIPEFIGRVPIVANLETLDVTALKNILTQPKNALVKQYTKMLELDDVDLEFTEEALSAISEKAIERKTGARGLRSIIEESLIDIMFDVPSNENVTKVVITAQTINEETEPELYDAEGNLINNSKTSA
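For Relative inhibition rate (%) in this document: ClpP peptidase activity measured as fluorescence (ex 360 nm, em 465 nm) from cleavage of Suc-LY-AMC substrate at 100 µM, 30 min at 32°C.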

Row | Molecule | inhibition at 64 µg/mL (ClpP [2]) [%] | also measured
1 | O=c1c(O)c(-c2cc(O)c(O)c(O)c2)oc2cc(O)cc(O)c12 [myricetin] | – | ClpP peptidase assay with fluorescent substrate Suc-LY-AMC (positive-control inh) (ClpP [1]): the inhibitory ability of quercetin and the positive-control myricetin on ClpP activity were the closest
2 | COc1ccc(-c2oc3c(CC=C(C)C)c(O[C@@H]4O[C@H](CO)[C@@H](O)[C@H](O)[C@H]4O)cc(O)c3c(=O)c2O[C@@H]2O[C@@H](C)[C@H](O)[C@@H](O)[C@H]2O[C@@H]2OC[C@@H](O)[C@H](O)[C@H]2O)cc1 [Epimedin B] | 29.1 ± 2.01 | –
3 | Oc1cc2c(cc1O)[C@@H]1c3ccc(O)c(O)c3OC[C@]1(O)C2 [Hematoxylin] | 23.9 ± 2.69 | –
4 | O=c1c(O)c(-c2ccc(O)c(O)c2)oc2cc(O)cc(O)c12 [quercetin] | 74.3 ± 2.67 | MIC (S. aureus USA300 (MRSA)): 128 µg/mL (≈ 424 µM); Kd (ClpP [3]): 197 nM
5 | COc1ccc(-c2cc(=O)c3c(O)cc(O[C@@H]4O[C@H](CO[C@@H]5O[C@@H](C)[C@H](O)[C@@H](O)[C@H]5O)[C@@H](O)[C@H](O)[C@H]4O)cc3o2)cc1 [Buddleoside] | 46.2 ± 1.25 | –
6 | O=C(/C=C/c1ccc(O)c(O)c1)O[C@@H]1C[C@](O)(C(=O)O)C[C@@H](O)[C@H]1O [Chlorogenic acid] | 10.4 ± 1.12 | –
7 | COc1cc(O)c2c(=O)c(O[C@@H]3O[C@H](CO)[C@@H](O)[C@H](O)[C@H]3O)c(-c3ccc(O[C@@H]4O[C@H](CO)[C@@H](O)[C@H](O)[C@H]4O)cc3)oc2c1 [Complanatuside] | 12.3 ± 0.47 | –
8 | O=C1C[C@@H](c2ccc(O[C@@H]3O[C@H](CO)[C@@H](O)[C@H](O)[C@H]3O)cc2)Oc2cc(O)ccc21 [Liquiritin] | 3.2 ± 0.97 | –
9 | Oc1ccc2c(c1)OC[C@]1(O)Cc3cc(O)c(O)cc3[C@H]21 [Brazilin] | 47.2 ± 2.57 | –
10 | CC1=C[C@H](O)CC(C)(C)[C@H]1/C=C/C(C)=C/C=C/C(C)=C/C=C/C=C(C)/C=C/C=C(C)/C=C/C1=C(C)C[C@@H](O)CC1(C)C [Lutein] | 1.4 ± 0.52 | –
11 | O=C1c2ccccc2C(=O)c2c1ccc(O)c2O [Alizarin] | 56.6 ± 5.28 | –
12 | C[C@@H]1O[C@@H](O[C@H]2[C@H](Oc3cc(O)c4c(=O)cc(-c5ccc(O)cc5)oc4c3)O[C@H](CO)[C@@H](O)[C@@H]2O)[C@H](O)[C@H](O)[C@H]1O [Rhoifolin] | 46.7 ± 1.3 | –
13 | COc1cc([C@@H]2Oc3c(O)cc([C@H]4Oc5cc(O)cc(O)c5C(=O)[C@@H]4O)cc3[C@H]2CO)ccc1O [Silicristin] | 9.3 ± 0.83 | –
14 | O=Cc1ccc(O[C@@H]2O[C@H](CO)[C@@H](O)[C@@H](O)[C@H]2O)cc1 [Helicid] | 13.9 ± 3.22 | –
15 | COc1ccc(-c2cc(=O)c3c(O)cc(OC)cc3o2)cc1 [Apigenin 7,4'-dimethyl ether] | 18.4 ± 1.24 | –
16 | COc1ccc(-c2oc3c(CC=C(C)C)c(O[C@@H]4O[C@H](CO)[C@@H](O)[C@H](O)[C@H]4O)cc(O)c3c(=O)c2O[C@@H]2O[C@@H](C)[C@H](O)[C@@H](O)[C@H]2O)cc1 [Icariin] | 34.6 ± 1.54 | –
17 | Nc1[nH]c(=O)nc2c1ncn2[C@@H]1O[C@H](CO)[C@@H](O)[C@H]1O [Crotonoside] | 28.1 ± 3.17 | –
18 | COc1ccc([C@@H]2CC(=O)c3c(O)cc(O[C@@H]4O[C@H](CO[C@@H]5O[C@@H](C)[C@H](O)[C@@H](O)[C@H]5O)[C@@H](O)[C@H](O)[C@H]4O)cc3O2)cc1 [Didymin] | 31.2 ± 0.59 | –
19 | C=C1CC[C@@H]2[C@](C)(CO)[C@H](O)CC[C@@]2(C)[C@@H]1C/C=C1/C(=O)OC[C@H]1O [Andrographolide] | 15.8 ± 0.72 | –

Row | Molecule | inhibition at 64 µg/mL (ClpP [2]) [%] | also measured
20 | C[C@@H]1CC[C@@]2(OC1)O[C@H]1C[C@H]3[C@@H]4CC[C@H]5C[C@@H](O)CC[C@]5(C)[C@H]4CC[C@]3(C)[C@H]1[C@@H]2C [Tigogenin] | 12.3 ± 4.21 | –
21 | COc1ccc(C(=O)O)cc1O [Isovanillic acid] | 13.7 ± 2.43 | –
22 | COc1cc2c(cc1O)C[C@H]1c3cc(O)c(OC)cc3CC[N+]1(C)C2 (stereo partly shown) [Phellodendrine chloride] | 10.2 ± 2.67 | –
23 | CC(C)=CC[C@@H](O)C1=CC(=O)c2c(O)ccc(O)c2C1=O [Shikonin] | 13.4 ± 1.54 | –
24 | O=c1c(-c2ccc(O)cc2)coc2cc(O[C@@H]3O[C@H](CO)[C@@H](O)[C@H](O)[C@H]3O)cc(O)c12 [Genistin] | 22.1 ± 0.63 | –
25 | COc1ccc(C(C)=O)c(O)c1 [Paeonol] | 26.7 ± 4.31 | –
26 | COc1cc(O)c2c(c1)O[C@H](c1ccc(O)cc1)CC2=O [Sakuranetin] | 3.9 ± 1.2 | –
27 | O=c1c(-c2ccccc2)coc2ccccc12 [Isoflavone] | 20.1 ± 0.73 | –
28 | O=C1C[C@@H](c2ccccc2)Oc2cc(O)cc(O)c21 [Pinocembrin] | 33.7 ± 0.68 | –
29 | CC(C)=CCc1c(-c2ccc(O)cc2O)oc2c([C@H]3C=C(C)C[C@@H](c4ccc(O)cc4O)[C@@H]3C(=O)c3ccc(O)cc3O)c(O)cc(O)c2c1=O [kuwanonG] | 21.2 ± 2.56 | –
30 | C=CC/C(=N/OS(=O)(=O)O)S[C@@H]1O[C@H](CO)[C@@H](O)[C@H](O)[C@H]1O [Sinigrin] | 20.1 ± 4.17 | –
31 | COC(=O)[C@@]12OC[C@]34[C@H]([C@@H](O)[C@@H]1O)[C@@]1(C)CC(=O)C(O)=C(C)[C@@H]1C[C@H]3OC(=O)[C@H](OC(C)=O)[C@@H]24 [Bruceine B] | 1.6 ± 2.71 | –
32 | COc1ccc(-c2cc(=O)c3c(O)c(OC)c(O[C@@H]4O[C@H](CO[C@@H]5O[C@@H](C)[C@H](O)[C@@H](O)[C@H]5O)[C@@H](O)[C@H](O)[C@H]4O)cc3o2)cc1 [Pectolinarin] | 28.3 ± 1.37 | –
33 | CC(C)=CCc1c(O)ccc(C(=O)/C=C/c2ccc(O)cc2)c1O [isobavachalcone] | 97.6 ± 0.26 | MIC (S. aureus USA300 (MRSA)): 8 µg/mL (≈ 24.7 µM)
34 | O=c1cc(-c2ccc(O)cc2)oc2c([C@@H]3O[C@H](CO)[C@@H](O)[C@H](O)[C@H]3O)c(O)c([C@@H]3O[C@H](CO)[C@@H](O)[C@H](O)[C@H]3O)c(O)c12 [Vicenin-2] | 48.2 ± 2.26 | –
35 | C/C=C(/C)C(=O)O[C@H]1[C@@H](OC(C)=O)c2c(ccc3ccc(=O)oc23)OC1(C)C [Praeruptorin A] | 37.8 ± 3.15 | –
36 | O=C(CCc1ccc(O)cc1)c1c(O)cc(O)cc1O[C@@H]1O[C@H](CO)[C@@H](O)[C@H](O)[C@H]1O [Phlorizin] | 5.3 ± 0.71 | –
37 | COc1ccc(CCC(=O)c2ccc(O)cc2)c(OC)c1 [Loureirin A] | 56.5 ± 2.47 | –
38 | O=c1cc(-c2ccc(O)c(O)c2)oc2c([C@@H]3O[C@H](CO)[C@@H](O)[C@H](O)[C@H]3O)c(O)cc(O)c12 [Orientin] | 61.4 ± 1.24 | –

Row | Molecule | inhibition at 64 µg/mL (ClpP [2]) [%] | also measured
39 | C[C@@H]1O[C@@H](O[C@H]2C(=O)c3c(O)cc(O)cc3O[C@@H]2c2ccc(O)c(O)c2)[C@H](O)[C@H](O)[C@H]1O [Astilbin] | 9.1 ± 2.73 | –
40 | O=c1c(-c2ccc(O)cc2)coc2cc(O)cc(O)c12 [Genistein] | 33.5 ± 0.65 | –
41 | COc1cc(OC)c(CCC(=O)c2ccc(O)cc2)c(OC)c1 [Loureirin B] | 29.8 ± 2.24 | –
42 | COc1ccc(-c2cc(=O)c3c(O)cc(O)cc3o2)cc1O [Diosmetin] | 6.1 ± 1.68 | –
43 | C[C@@H]1C(=O)O[C@H](C)[C@H]1C[C@@H](O)[C@](C)(O)[C@H]1CC[C@@]2(O)C3=CC(=O)[C@@H]4C[C@@H](O)[C@@H](O)C[C@]4(C)[C@H]3CC[C@]12C [Cyasterone] | 25.6 ± 2.65 | –
44 | CC(=O)OCC1=C[C@@H]2OC(=O)C3=CO[C@@H](O[C@@H]4O[C@H](CO)[C@@H](O)[C@H](O)[C@H]4O)[C@H]1[C@@H]32 [Asperuloside] | 17.4 ± 2.31 | –
45 | CC1=CC(=O)CC(C)(C)[C@@]1(O)/C=C/C(C)=C\C(=O)O [Abscisic acid] | 0.8 ± 3.42 | –
46 | CCC1=C[C@@H]2CN3CCc4c([nH]c5ccccc45)[C@@](C(=O)OC)(C2)[C@@H]13 [Catharanthine] | 10.3 ± 1.62 | –
47 | O=c1c(O[C@@H]2O[C@H](CO)[C@@H](O)[C@H](O)[C@H]2O[C@@H]2O[C@H](CO)[C@@H](O)[C@H](O)[C@H]2O)c(-c2ccc(O)c(O)c2)oc2cc(O)cc(O)c12 [Baimaside] | 25.1 ± 0.69 | –
48 | O=c1cc(-c2ccccc2)oc2cc(O)cc(O)c12 [Chrysin] | 49 ± 3.18 | –
49 | CC(C)c1ccc2c(c1O)CC[C@H]1C3=C(CC[C@]21C)C(=O)OC3 [Triptophenolide] | 20.8 ± 0.61 | –
50 | O=c1cc(-c2ccc(O)c(O)c2)oc2cc(O)c([C@@H]3O[C@H](CO)[C@@H](O)[C@H](O)[C@H]3O)c(O)c12 [Isoorientin] | 50.2 ± 1.58 | –
51 | C=C(C)[C@H](CC=C(C)C)Cc1c(O)cc(O)c2c1O[C@H](c1ccc(O)cc1O)CC2=O [Nor-kurarinone] | 83.3 ± 0.02 | MIC (S. aureus USA300 (MRSA)): 2 µg/mL (≈ 4.71 µM)
52 | Cc1coc2c1C(=O)C(=O)c1c-2ccc2c(C)cccc12 [Tanshinone I] | 12.3 ± 1.41 | –
53 | O=C1c2ccccc2C(=O)c2c(O)c(O)cc(O)c21 [Purpurin] | 11.6 ± 2.51 | –
54 | CC(C)(C)[C@]1(O)C[C@@H]2OC(=O)C[C@@]23C(=O)O[C@@H]2OC(=O)[C@H](O)[C@]213 [Bilobalide] | 17.4 ± 1.76 | –
55 | C=C(C)[C@@H]1CCC(C)=C[C@H]1c1c(O)cc(CCCCC)cc1O [cannabidiol] | 6.8 ± 2.41 | –
56 | COc1cc(O)c2c(=O)cc(-c3ccccc3)oc2c1 [Tectochrysin] | 7.1 ± 0.26 | –
57 | B1 | – | binding result [4]: binds

From article PMC9045277, “Quercetin Reduces the Virulence of S. aureus by Targeting ClpP to Protect Mice from MRSA-Induced Lethal Pneumonia” (Microbiology Spectrum, 2022)
